Experimental data from ChEMBL document CHEMBL5634091, “Cantharidin analogue alleviates dextran sulfate sodium-induced colitis in mice by inhibiting the activation of NF-κB signaling” (Eur J Med Chem, 2023).
The source made the active and inactive calls. No cut-off for these calls is given here.

Key:
HCT-116 [1] = experiment: Inhibition of TNF-alpha-induced NF-kappaB nuclear translocation in human HCT-116 cells preincubated for 4 hrs followed by TNF-alpha stimulation and measured after 30 mins by immunofluorescence staining based laser scanning confocal microscopic analysis; assay type: cell-based; conditions: dose 25-50 µM, time 4.5 hrs
[2] = Cytotoxicity against TNF-alpha induced HEK293T cells assessed as inhibition of cell growth preincubated for 24 hrs followed by TNFalpha stimulation and measured after 4 hrs by SRB assay; assay type: toxicity, cell-based, HEK-293T; conditions: human, HEK293T cells induced with TNF-alpha; time 28 hrs
[3] = target: T1, NF-kappa-B inhibitor alpha (Homo sapiens) (UniProt P25963); experiment: Inhibition of proteasomal degradation of IkappaBalpha in TNF-alpha induced human HCT-116 cells assessed as increase in IkappaBalpha protein expression at 12.5 to 50 uM preincubated for 4 hrs and followed TNF-alpha stimulation and measured after 10 mins by Western blot analysis; assay type: cell-based; conditions: dose 12.5-50 µM, time 250.0 min
T1 sequence (whole entry): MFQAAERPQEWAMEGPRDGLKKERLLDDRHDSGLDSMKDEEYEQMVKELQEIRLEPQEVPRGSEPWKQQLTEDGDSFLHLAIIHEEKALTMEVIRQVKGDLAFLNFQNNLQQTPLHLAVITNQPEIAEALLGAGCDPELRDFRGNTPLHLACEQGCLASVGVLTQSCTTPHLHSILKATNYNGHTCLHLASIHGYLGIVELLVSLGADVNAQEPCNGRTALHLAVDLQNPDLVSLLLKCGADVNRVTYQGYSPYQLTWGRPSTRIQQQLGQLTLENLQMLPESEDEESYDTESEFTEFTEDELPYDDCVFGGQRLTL

Mus musculus [4] = experiment: Anti-inflammatory activity in C57BL/6 mouse model of DSS-induced acute ulcerative colitis assessed as reduction in tissue lesions at 100 to 300 mg/kg, po administered once a day for 7 days by H and E staining based analysis; assay type: functional, organism-based; conditions: dose 100-300 mg/kg, time 7.0 day
DLD-1 [5] = experiment: Inhibition of TNF-alpha induced MAPK signaling pathway activation in human DLD-1 cells assessed as decrease in phospho-JNK protein expression at 12.5 uM preincubated for 4 hrs and followed TNF-alpha stimulation and measured after 10 mins by Western blot analysis; assay type: cell-based; conditions: time 250.0 min
DLD-1 [6] = experiment: Activation of MAPK signaling pathway in TNF-alpha stimulated human DLD-1 cells assessed as increase in phospho-ERK protein expression at 50 uM preincubated for 4 hrs and followed TNF-alpha stimulation and measured after 10 mins by Western blot analysis; assay type: cell-based; conditions: filed as activator, time 250.0 min
HCT-116 [7] = experiment: Inhibition of TNF-alpha induced NF-kB activation in human HCT-116 cells assessed as decrease in phosphorylated p65 protein expression preincubated for 4 hrs and followed TNF-alpha stimulation and measured after 10 mins by Western blot analysis; assay type: cell-based; conditions: dose 12.5-50 µM, time 250.0 min
[8] = Toxicity in Kunming mouse assessed as increase in body weight at 1111 mg/kg, po measured for 15 days (reference value: 12.38%); assay type: organism-based; conditions: in vivo, 360 h, time 15 day
[9] = Toxicity in C57BL/6 mouse model of DSS-induced acute ulcerative colitis assessed as effect on kidney tissue at 100 to 300 mg/kg, po administered once a day for 7 days by H and E staining based analysis; assay type: organism-based; conditions: in vivo, 168 h, dose 100-300 mg/kg, time 7 day
[10] = Toxicity in Kunming mouse assessed as increase in body weight at 1852 mg/kg, po measured for 15 days (reference value: 12.38%); assay type: organism-based; conditions: in vivo, 360 h, time 15 day
Mus musculus [11] = experiment: Anti-inflammatory activity in C57BL/6 mouse model of DSS-induced acute ulcerative colitis assessed as reduction in p65 expression in colon at 100 to 300 mg/kg, po administered once a day for 7 days by immunohistochemical analysis; assay type: functional, organism-based; conditions: dose 100-300 mg/kg, time 7.0 day
[12] = Toxicity in Kunming mouse assessed as increase in body weight at 667 mg/kg, po measured for 15 days (reference value: 12.38%); assay type: organism-based; conditions: in vivo, 360 h, time 15 day
HCT-116 [13] = experiment: Inhibition of TNF-alpha induced NF-kB activation in human HCT-116 cells assessed as decrease in phosphorylated IkappaBalpha protein expression preincubated for 4 hrs and followed TNF-alpha stimulation and measured after 10 mins by Western blot analysis; assay type: cell-based; conditions: dose 12.5-50 µM, time 250.0 min

inhibition [3]: Active
Structure (SMILES): COC(=O)C1=C(C(=O)OC)C2OC1CC2C#Cc1ccc(C)cc1 (stereo not drawn)
inhibition (HCT-116 [1]): Dose-Dependent Effect
CC50 at 4 h [2]: 94.3 µM
Activity (Mus musculus [4]): Active
inhibition (DLD-1 [5]): Active
Activity (DLD-1 [6]): Active
inhibition (HCT-116 [7]): Dose-Dependent Effect
Activity [8]: 6.01%
Activity [9]: Non-Toxic
Activity [10]: 15.38%
Activity (Mus musculus [11]): Active
Activity [12]: 19.18%
inhibition (HCT-116 [13]): Dose-Dependent Effect
